# From PubChem BioAssay (NCI)
#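 48-hour exposure; five concentrations; linearly interpolated endpoints. At the TGI there is no net growth.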
# Assays:
# Test in all cases: inhibition of tumour cell growth, NCI panel, 48 h
# [1] = tested on: SF-295 CNS
# [2] = tested on: SR leukemia
# [3] = tested on: HCT-15 colon
# [4] = tested on: MCF7 breast
# [5] = tested on: TK-10 renal
# [6] = tested on: MOLT-4 leukemia
# [7] = tested on: NCI-H522 lung
# [8] = tested on: UACC-257 melanoma
# [9] = tested on: CAKI-1 renal
# [10] = tested on: M14 melanoma
# [11] = tested on: SN12C renal
# [12] = tested on: NCI-H23 lung
# [13] = tested on: RPMI-8226 leukemia
# [14] = tested on: ACHN renal
# [15] = tested on: OVCAR-8 ovarian
# [16] = tested on: IGROV1 ovarian
# [17] = tested on: A549 NSCLC
# [18] = tested on: OVCAR-4 ovarian
# [19] = tested on: UO-31 renal
# [20] = tested on: 786-0 renal
# [21] = tested on: SW-620 colon
# [22] = tested on: K-562 leukemia
# [23] = tested on: HCC-2998 colon
# [24] = tested on: LOX IMVI melanoma
# [25] = tested on: RXF 393 renal
# [26] = tested on: HOP-92 NSCLC
# [27] = tested on: MDA-MB-231 breast
# [28] = tested on: SNB-75 CNS
# [29] = tested on: HS 578T breast
# [30] = tested on: T-47D breast
# [31] = tested on: UACC-62 melanoma
# [32] = tested on: COLO 205 colon
# [33] = tested on: KM12 colon
# [34] = tested on: SNB-19 CNS
# [35] = tested on: SK-MEL-2 melanoma
# [36] = tested on: SK-MEL-28 melanoma
# [37] = tested on: HL-60(TB) leukemia
# [38] = tested on: NCI-H460 lung
# [39] = tested on: HOP-62 NSCLC
# [40] = tested on: OVCAR-3 ovarian
# [41] = tested on: EKVX NSCLC
# [42] = tested on: MALME-3M melanoma
# [43] = tested on: SK-OV-3 ovarian
# [44] = tested on: MDA-N
# [45] = tested on: DU-145 prostate
# [46] = tested on: NCI/ADR-RES ovarian
# [47] = tested on: HT29 colon
# [48] = tested on: CCRF-CEM leukemia
# [49] = tested on: SK-MEL-5 melanoma
# [50] = tested on: MDA-MB-435
# [51] = tested on: A498 renal
# [52] = tested on: SF-539 CNS
# [53] = tested on: HCT-116 colon
# [54] = tested on: U251 CNS
# [55] = tested on: NCI-H226 lung
# [56] = tested on: PC-3 prostate
# [57] = tested on: OVCAR-5 ovarian
# [58] = tested on: SF-268 CNS
# [59] = tested on: BT-549 breast
compound,measurement,setting,value
O=C1OCC2=C1C(c1ccc3c(c1)OCO3)c1cc3c(cc1O2)OCO3 (stereo not given),TGI,[1],> 72.2 µM
same,TGI,[2],5.19 µM
same,TGI,[3],> 79.1 µM
same,TGI,[4],> 100 µM
same,TGI,[5],> 100 µM
same,TGI,[6],> 49.1 µM
same,TGI,[7],0.533 µM
same,TGI,[8],> 100 µM
same,TGI,[9],> 100 µM
same,TGI,[10],11.4 µM
same,TGI,[11],> 100 µM
same,TGI,[12],> 100 µM
same,TGI,[13],10.5 µM
same,TGI,[14],> 100 µM
same,TGI,[15],68.1 µM
same,TGI,[16],> 100 µM
same,TGI,[17],> 100 µM
same,TGI,[18],> 100 µM
same,TGI,[19],> 85.6 µM
same,TGI,[20],> 30.1 µM
same,TGI,[21],> 100 µM
same,TGI,[22],28.8 µM
same,TGI,[23],59.3 µM
same,TGI,[24],> 100 µM
same,TGI,[25],7.6 µM
same,TGI,[26],> 100 µM
same,TGI,[27],> 100 µM
same,TGI,[28],11.9 µM
same,TGI,[29],20.8 µM
same,TGI,[30],> 100 µM
same,TGI,[31],> 72.6 µM
same,TGI,[32],15.2 µM
same,TGI,[33],> 100 µM
same,TGI,[34],> 27.2 µM
same,TGI,[35],> 100 µM
same,TGI,[36],> 59.1 µM
same,TGI,[37],0.365 µM
same,TGI,[38],> 100 µM
same,TGI,[39],> 100 µM
same,TGI,[40],> 21.3 µM
same,TGI,[41],> 100 µM
same,TGI,[42],> 100 µM
same,TGI,[43],> 85.2 µM
same,TGI,[44],0.368 µM
same,TGI,[45],> 58.8 µM
same,TGI,[46],2.03 µM
same,TGI,[47],3.54 µM
same,TGI,[48],> 30.7 µM
same,TGI,[49],> 100 µM
same,TGI,[50],0.323 µM
same,TGI,[51],42.8 µM
same,TGI,[52],2.81 µM
same,TGI,[53],41.5 µM
same,TGI,[54],> 100 µM
same,TGI,[55],> 100 µM
same,TGI,[56],> 63.7 µM
same,TGI,[57],> 100 µM
same,TGI,[58],> 100 µM
CCCCCCN1CCc2c(C)c(C#N)c3nc4ccccc4n3c21,TGI,[1],> 100 µM
same,TGI,[2],> 100 µM
same,TGI,[3],> 100 µM
same,TGI,[4],41.5 µM
same,TGI,[5],> 100 µM
same,TGI,[7],> 100 µM
same,TGI,[8],> 100 µM
same,TGI,[10],> 100 µM
same,TGI,[11],> 100 µM
same,TGI,[12],> 100 µM
same,TGI,[14],> 100 µM
same,TGI,[15],> 100 µM
same,TGI,[16],> 100 µM
same,TGI,[59],> 100 µM
same,TGI,[17],> 100 µM
same,TGI,[18],> 100 µM
same,TGI,[19],> 100 µM
same,TGI,[20],> 100 µM
same,TGI,[21],> 100 µM
same,TGI,[22],> 100 µM
same,TGI,[23],> 100 µM
same,TGI,[24],> 100 µM
same,TGI,[25],> 100 µM
same,TGI,[26],> 100 µM
same,TGI,[27],> 100 µM
same,TGI,[28],> 100 µM
same,TGI,[29],75.6 µM
same,TGI,[31],> 100 µM
same,TGI,[32],> 100 µM
same,TGI,[34],> 100 µM
same,TGI,[35],> 100 µM
same,TGI,[36],> 100 µM
same,TGI,[37],> 100 µM
same,TGI,[38],> 100 µM
same,TGI,[39],> 100 µM
same,TGI,[40],> 100 µM
same,TGI,[42],> 100 µM
same,TGI,[43],> 100 µM
same,TGI,[44],> 100 µM
same,TGI,[45],> 100 µM
same,TGI,[46],> 100 µM
same,TGI,[47],> 100 µM
same,TGI,[49],> 100 µM
same,TGI,[50],93.8 µM
same,TGI,[51],> 100 µM
same,TGI,[52],> 100 µM
same,TGI,[53],> 100 µM
same,TGI,[54],> 100 µM
same,TGI,[55],> 100 µM
same,TGI,[56],> 100 µM
same,TGI,[57],> 100 µM
same,TGI,[58],> 100 µM
